Measurements reported in patent US10314771B2, “Methods and compositions for preventing and treating tooth erosion” (University of Tennessee Research Foundation, priority 2013, dated 2019).

Experimental: The capacity of sodium bicarbonate to neutralize acid saliva was assessed. A pool of saliva was collected from 5 individuals, and the normal pH of the saliva was measured before brushing or eating. […] In order to simulate an acidic challenge, the pH of the saliva was adjusted to 2.5 with 0.01M HCl.
The saliva was titrated with a 3M sodium bicarbonate solution and measured the volume of solution necessary to neutralize the saliva to a pH of 6.8.

O=C([O-])O.[Na+] [Sodium Bicarbonate, sodium bicarbonate]
volume needed to neutralize the acidic saliva to a pH of 7.0 (3M solution): 2.0 mLs | rinsing time sufficient to help neutralize the saliva (rinsing with a sodium bicarbonate solution): 30 s
